The subject of data set [1] is human uterus cervix cancer HeLa cell. The data set is described as follows: Cytotoxic action on HeLa cells (WST-8, 96 hr). The data set is classed as cell-based. The protocol:
(§1) The cytotoxic action of the compound of the present invention against human cancer cells was evaluated in vitro. In this experiment, (+)-JQ1 (Nature volume 468, pages 1067-1073 (23 Dec. 2010)) known to have an inhibitory activity on the binding of BRD4 protein and a ligand therefor was used as a positive control drug. Respective cells were suspended in 10% FBS/RPMI1640, seeded in a 96 well plate and cultured at 5% CO2, 37° C. overnight. A test compound dissolved in DMSO was diluted with 10% FBS/RPMI1640 and added and the cells were further cultured for 96 hr. After culturing, the viable cell number was measured using a cell number measurement WST-8 kit (Kishida Chemical Co., Ltd.). As a control, the measurement was performed under conditions free of the test compound. The cytotoxic activity of the compound of the present invention against human prostate cancer LNCaP cells is shown in IC50 value in Table 1. The IC50 value is a concentration of the compound showing 50% cell survival rate when the cell survival rate thereof under compound untreated condition is 100%. It was calculated from the straight line connecting the cell survival rate at two points enclosing the 50% cell survival rate and the compound concentration. […]
For orientation: Tetrazolium assays rely on reduction of a dye to a coloured formazan, in cell work by metabolically active cells.

Data set [2] deals with human Burkitt lymphoma Raji cell. The data set is described as follows: Cytotoxic action on Raji cells (WST-8, 96 hr). It is filed as cell-based. The protocol:
as §1

Data set [3] is described as follows: Maximum tolerated dose in rats (single tail vein administration). Conditions: rat, in vivo, intravenous, male CD (SD) rats. As to the method: The maximum tolerated dose (MTD) in rats was determined for the compound of the present invention.
In data set [4] the test system is Human breast cancer MDA-MB-436 cells. The data set is described as follows: Cytotoxic action on MDA-MB-436 cells (WST-8, 96 hr). It is filed as cell-based. Conditions: Homo sapiens. As to the method:
The cytotoxic action of the compound of the present invention against cancer cells that acquired resistance to conventional BRD4 protein degradation inducing agents was evaluated in vitro. In this experiment, ARV-771 (Proc Natl Acad Sci USA. volume 113, pages 7124-7129 (28 Jun. 2016)) and MZ1 (ACS Chem Biol. Volume 10, pages 1770-1777 (21 Aug. 2015)), in which a ligand for VHL and BRD4 protein inhibitor are linked, were used as a conventional BRD4 protein degradation inducing agent serving as a comparison control. Human breast cancer MDA-MB-436 cells and MDA-MB-436 cells that acquired resistance to conventional BRD4 protein degradation inducing agents (MDA-MB-436 w/o2 cells) were suspended in 10% FBS/RPMI1640, seeded in a 96 well plate and cultured at 5% CO2, 37° C. overnight. A test compound dissolved in DMSO was diluted with 10% FBS/RPMI1640 and added and the cells were further cultured for 96 hr. After culturing, the viable cell number was measured using a cell number measurement WST-8 kit (Kishida Chemical Co., Ltd.). As a control, the measurement was performed under conditions free of the test compound. The cytotoxic activity of the compound of the present invention against each cell is shown in IC50 value in Table 4. The IC50 value is a concentration of the compound showing 50% cell survival rate when the cell survival rate thereof under compound untreated condition is 100%. It was calculated from the straight line connecting the cell survival rate at two points enclosing the 50% cell survival rate and the compound concentration. In addition, the tolerance (fold) was calculated by dividing the IC50 value in MDA-MB-436 w/o2 cells by the IC50 value in MDA-MB-436 cells.

In data set [5] the test system is human EGFRT790M mutation-positive non-small cell lung cancer NCI-H1975 cell. Kind of data set: Cytotoxic action on NCI-H1975 cells (WST-8, 96 hr). The data set is classed as cell-based. The following applies: NCI-H1975, 96 hr. The protocol:
as §1

In data set [6] the test system is human stomach cancer SNU-16 cell. The data set is described as follows: Cytotoxic action on SNU-16 cells (WST-8, 96 hr). The following applies: SNU-16, 96 hr. It is filed as cell-based. As to the method: as §1
For data set [7], the system named is human fibrosarcoma HT1080 cell. Kind of data set: Cytotoxic action on HT1080 cells (WST-8, 96 hr). It is filed as cell-based. The following applies: HT-1080, HT1080, 96 hr. As to the method: as §1
Data set [8] relates to human multiple myeloma MM.1S cell. Kind of data set: Cytotoxic action on MM.1S cells (WST-8, 96 hr). It is filed as cell-based. Conditions: MM1.S. The protocol: as §1
In data set [9] the target is BRD4 protein (Homo sapiens (Human), UniProt O60885). The data set is described as follows: BRD4 protein degradation inducing action in LNCaP cells (immunofluorescence, 6 hr). The data set is classed as cell-based. The following applies: anti-BRD4 fluorescence intensity. In short, it runs like this: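 Read-out is BRD4 immunofluorescence intensity (560/572 nm) after 6 hr compound treatment of LNCaP cells in 10% FBS/RPMI1640, with fixation, permeabilization and anti-BRD4 staining. Linear interpolation between the two concentrations flanking 50% of untreated intensity gives DC50.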

Data set [10] concerns human bile duct cancer HuCCT1 cell. Kind of data set: Cytotoxic action on HuCCT1 cells (WST-8, 96 hr). It is filed as cell-based. The following applies: HuCCT-1, HuCCT1, 96 hr. As to the method: as §1
The subject of data set [11] is human renal cell cancer 786-O cell. Kind of data set: Cytotoxic action on 786-O cells (WST-8, 96 hr). It is filed as cell-based. Conditions: 786-O (printed 786-0). The protocol:
as §1

Some results are limits rather than exact numbers.

Usually IC50 stands for the concentration that gives 50% inhibition. What is called MTD is the highest dose tested that stayed within the study's limit of toxicity. As usually defined, the DC50 is the concentration at which degradation of the target reaches its halfway point. Lower therefore signals a more potent degrader. Turning to `COC(=O)C[C@@H]1N=C(c2ccc(-c3ccc(C(=O)NCc4ccc(S(=O)(=O)Nc5ccc(C)c6c(C#N)c[nH]c56)cc4)cc3)cc2)c2c(sc(C)c2C)-n2c(C)nnc21` [Example 1, methyl [(6S)-4-{4′-[({4-[(3-cyano-4-methyl-1H-indol-7-yl)sulfamoyl]phenyl}methyl)carbamoyl][1,1′-biphenyl]-4-yl}-2,3,9-trimethyl-6H-thieno[3,2-f][1,2,4]triazolo[4,3-a][1,4]diazepin-6-yl]acetate], the IC50 worked out at 27 nM in data set [1]; 5.3 nM in data set [2]; 0.39 nM in data set [4]; 3.6 nM in data set [5]; 6.4 nM in [6]; 13 nM in [7]. The IC50 in data set [8] came to 0.026 nM; in data set [10] it was 26 nM; in data set [11], 660 nM. Also, in data set [3], the MTD was > 10 mg/kg. This compound also registered a DC50 in [9] of 0.15 nM.

Values taken from US11890288B2, “Sulfonamide or sulfinamide compound having effect of inducing BRD4 protein degradation and pharmaceutical use thereof” (MITSUBISHI TANABE PHARMA CORPORATION, priority 2020, dated 2024).
